Assays:
[1] = tested on: nuclear lamins A and B in Met18b-2 cells; assay: [3H]mevalonate labeling of farnesylated nuclear lamins in Met18b-2 cells; assay type: cell-based, Chinese hamster; settings: 250 μM; FIG. 3
From the text: To study farnesylation in intact cells we used Met18b-2 cells, a line of Chinese hamster ovary (CHO) cells that takes up [3H]mevalonate efficiently (see Faust, J., and Krieger, M. J. Biol. Chem. 262, 1966 (1987)) owing to the production of a mevalonate transport protein (see Kim, C. M., Goldstein, J. L., Brown, M. S. J. Biol. Chem. 267, 23113 (1992)). The [3H]mevalonate is converted by the cells into [3H]farnesyl pyrophosphate and [3H]geranylgeranyl pyrophosphate, which are then attached to proteins (Kim, C. M., Goldstein, J. L., Brown, M. S. J. Biol. Chem. 267, 23113 (1992)). In the assay, stock cultures of Met18b-2 cells were seeded at a density of 3-105 cells per 60 mm dish in 3 ml of medium A (Dulbecco's modified Eagle medium/Ham's F12 medium (1:1, v/v) containing 100 U/ml penicillin and 100 μg/ml streptomycin) supplemented with 5% (v/v) fetal calf serum (FCS). On day 3, each monolayer was refed with 1 ml medium A supplemented with 1% FCS (dialyzed against 0.15 M NaCl). At this point the cells were treated with 100 μM compactin (see Brown, M. S., Faust, J. R., Goldstein, J. L., Kaneko, I., and Endo, A. J. Biol. Chem. 253, 1121 (1978)) which blocks the synthesis of unlabeled mevalonate within the cells. […] Protein concentrations were determined using the BCA protein assay reagent (Pierce) according to the manufacturer's instructions. […]

[2] = tested on: SW-480 cells; assay: Growth inhibition of human tumor line SW-480; assay type: cell-based; settings: SW480, SW-480, colon, ras transformed, read-out: % growth inhib.
Experimental: (§1) To examine the effects of farnesyltransferase inhibition on cell growth, three cell lines (ras-transformed rat-1, src-transformed rat-1, and parental rat-1 cells) were seeded (see FIG. 7) at low density and allowed to grow for 10 days in the absence or presence of increasing concentrations of BZA-5B (compound 37). See Example 128 for description of cells. On day 0, cells were plated in monolayer culture at 2×10^3 cells per well (24-well plates) in 1 ml DMEM supplemented with 10% fetal calf serum, 100 U/ml penicillin, 100 μg/ml streptomycin, 0.5 mM DTT, 0.025% DMSO, and the indicated concentration of BZA-5B (compound 37). On days 3 and 7, cells were washed and refed with the same medium. At the time indicated in FIG. 7, cells were harvested by trypsinization and counted in a Coulter counter. Panels A, C, E show the growth rate of each cell line in the absence of inhibitor. Panels B, D, F show the inhibition of growth as a function of concentration of BZA-5B at each time point. […]
(§2) To examine the effects of farnesyltransferase inhibition on the growth of human tumor cell lines, several such lines were treated with 25 μM BZA-5B (compound 37B) using a procedure similar to that described in Example 129 above. Cells were refed with fresh media at days 3 and 6 containing the inhibitor, and were harvested and counted as described above. […]

[3] = tested on: CALU-3 cells; assay: Growth inhibition of human tumor line CALU-3; assay type: cell-based; settings: CALU-3, lung, ras transformed, read-out: % growth inhib.
Experimental: as §1, §2

SMILES: CSCC[C@H](NC(=O)CN1C(=O)C(N(C)C(=O)[C@@H](N)CS)N=C(c2ccccc2)c2ccccc21)C(=O)O (single isomer, unassigned) [27B]
- labeling of farnesylated lamins (F-NL) [1]: reduced moderately the labeling of the farnesylated lamins

SMILES: COC(=O)[C@H](CCSC)NC(=O)CN1C(=O)C(N(C)C(=O)[C@@H](N)CS)N=C(c2ccccc2)c2ccccc21 (single isomer, unassigned) [37B]
- inhibition at 25 µM [2]: 45%
- inhibition at 25 µM [3]: 52%

Source: patent US5843941A, “Ras farnesyl transferase inhibitors” (Genentech, Inc., priority 1994, dated 1998)
